“Also recorded” adds a separate entry of the source.
Legend:
KDM4EJmjC (M1–Q337) [1] = target: T1, KDM4EJmjC (M1–Q337) (Homo sapiens, UniProt B2RXH2); test: MALDI-TOF demethylation assay, KDM4EJmjC; type: biochemical
T1 construct: We chose human KDM4EJmjC (M1–Q337); made in house
T1 sequence (B2RXH2 1-337): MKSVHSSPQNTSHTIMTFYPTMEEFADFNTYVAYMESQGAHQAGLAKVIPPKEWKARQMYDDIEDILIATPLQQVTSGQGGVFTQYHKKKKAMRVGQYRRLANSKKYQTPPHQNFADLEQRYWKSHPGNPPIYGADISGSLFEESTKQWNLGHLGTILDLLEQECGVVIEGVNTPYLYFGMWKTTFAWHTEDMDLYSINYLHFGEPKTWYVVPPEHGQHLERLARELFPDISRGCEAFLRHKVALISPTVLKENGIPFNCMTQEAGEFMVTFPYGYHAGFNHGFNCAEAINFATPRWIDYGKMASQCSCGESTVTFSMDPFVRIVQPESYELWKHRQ
Experimental: Reactions were monitored using MALDI-TOF mass spectrometry (Fig. 5b–d).
A Bruker Daltonics MALDI-TOF/TOF AutoflexSpeed machine and Bruker MTP 384 target plates (polished steel BC, Part: 8280781) were used. The machine was controlled using Flex control (v. 3.4 build 135.10) and Compass for flex series (v. 1.4) software. Measurements were in the positive ion mode with the reflectron mode enabled. Incubations employed ProxiPlate-384™ (Perkin Elmer) plates into which was pipetted a solution of [H3_1-15K9me3 (10.0 µM), (+)-sodium L-ascorbate (1.0 mM), (NH4)2Fe(II)(SO4)2 (100 µM), di-sodium 2-oxoglutarate (200 µM) in buffer (HEPES (50 mM)) in MilliQ (pH 7.5)] (5.0 µL) using ClipTip™ (Thermo Scientific™) pipette tips and E1-ClipTip™ (Thermo Scientific™). The enzyme solution [KDM4EJmjC (1.0 µM) in HEPES (50 mM)] (5.0 µL) was added to initiate reaction at 37 °C. Reactions were quenched with formic acid in water (2%, 5.0 µL). Samples were then spotted onto a MALDI-TOF target plate (1.0 µL), MALDI matrix [sat. sol. α-cyano-4-hydroxy-cinnamic acid (10 mg·mL^−1) in {trifluoro acetic acid, acetonitrile and MilliQ (0.1:50:50)}] (1.0 µL) was added, mixed, and dried in air. Samples were then analysed by MALDI-TOF. Specific experiments were supplemented with catalase from bovine liver (C3155-50MG, Merck) (5.0 µM), bovine albumin serum (BSA, Perkin Elmer, CR84-100, DTPA purified 7.5%) (5.0 µM), or Tris(carboxyethyl)phosphine hydrochloride salt (TCEP, M02624, Fluorochem) (500 µM).

KDM4EJmjC (M1–Q337) [2] = target: T1, KDM4EJmjC (M1–Q337); test: FDH coupled demethylation assay (formaldehyde release), KDM4EJmjC; type: biochemical; conditions: KDM4EJmjC 0–10 µM, H3KP9me3 10 µM; n = 3 or 4
Experimental: To test whether formaldehyde is generated by H3KP9me3 demethylation, a formaldehyde dehydrogenase (FDH) coupled assay was employed (Supplementary Fig. 19a)[34],[37]. […]
measurement of the formation of NADH. a FDH enzyme coupled to KDM4E JmjC demethylation assay measuring the levels of […]
(0–50 µM). c Michaelis-Menten analysis. Standard conditions: FDH (1.0 µM), Asc (1.0 mM), Fe(II) (50 µM), 2OG (200 µM) and NAD+ (250 µM). Errors are standard deviations of the mean (n = 2 or 3).
(1 picture or pasted object on this page, not shown here)
Supplementary Fig. 20 FDH activity assay of KDM4E JmjC (0–10 µM) catalysed demethylation of H3K P9me 3 (10 µM) […]
Standard conditions: FDH (1.0 µM), Ascorbate (1.0 mM), Fe(II) (50 µM), 2OG (200 µM) and NAD + (250 µM). Errors are standard deviations of the mean (n = 3 or 4).

ARTKQTAR(KPme3)STGGKA [H3KP9me3, histone H3 residues 1–15 with trimethylphosphonium lysine analogue at position 9]
demethylation in competition assay (KDM4EJmjC (M1–Q337) [1]; H3K9me3 (5.0 µM) and H3KP9me3 (5.0 µM) in the same vessel, KDM4EJmjC 0.5 µM): no evidence that H3KP9me3 was converted to H3KP9me2 or H3KP9me2O | relative substrate quality / rate (KDM4EJmjC (M1–Q337) [1]; H3K9me3 versus H3KP9me3): demethylation rate is significantly slower for H3KP9me3 than for H3K9me3 | demethylation in omission controls (KDM4EJmjC (M1–Q337) [1]; H3KP9me3: without KDM4EJmjC, Asc, Fe(II) or 2OG, H3K9me3: without Asc and Fe(II), 1 hr): little or no H3KP9me2 or H3KP9me2O formation | demethylation (KDM4EJmjC (M1–Q337) [1]; KDM4EJmjC 0.5 µM (H3KP9me3 also at 5.0 µM enzyme), peptide 5.0 or 6.0 µM, Asc 500 µM, Fe(II) 50 µM, 2OG 100 µM): only undergo a single demethylation (−14 Da) to give H3KP9me2 | effect of catalase with or without Asc or BSA (KDM4EJmjC (M1–Q337) [1]; KDM4EJmjC 0.5 µM, catalase 5.0 µM, BSA 5.0 µM): did not substantially alter the amounts of H3KP9me2 or H3KP9me2O | yield with TCEP rather than Asc (KDM4EJmjC (M1–Q337) [1]; TCEP as a reducing agent, KDM4EJmjC 0.5 µM): slightly increased yields of H3KP9me2 and H3KP9me2O | product formation (KDM4EJmjC (M1–Q337) [1]; stoichiometric: KDM4EJmjC 5.0 µM, peptide 5.0 µM): faster H3KP9me2 and H3KP9me2O product formation, but no evidence for H3KP9me1 or H3KP9 formation | formaldehyde release (KDM4EJmjC (M1–Q337) [2]): in an enzyme dependent manner that releases formaldehyde; also recorded: time-dependent increase in formaldehyde

Reference: paper PMC7613515, “Reading and erasing of the phosphonium analogue of trimethyllysine by epigenetic proteins” (Communications Chemistry, 2022)
